Assay results as given in ChEMBL document CHEMBL4627273, “BET proteins: Investigating BRDT as a potential target for male contraception” (Bioorg Med Chem Lett, 2020).

Molecular target: Bromodomain testis-specific protein (Homo sapiens, UniProt Q58F21)
Assay: Binding affinity to human partial length BRDT bromodomain 1 (N21 to E137 residues) expressed in bacterial expression system by BROMOscan assay

Kd: 6 to 19 nM
SMILES: Cc1sc2c(c1C)C(c1ccc(Cl)cc1)=N[C@@H](CC(=O)NCCCCNC(=O)COc1cccc3c1C(=O)N(C1CCC(=O)NC1=O)C3=O)c1nnc(C)n1-2 (stereo partly specified)
